Test system: MV-4-11 cells
Assay: Gene expression microarray analysis (Affymetrix PrimeView) and GSEA
Format: cell-based, human
Parameters: RFU PODN (11730768_x_at) / Fold change /veh PODN (11730768_x_at) / RFU LINC00158 (11744669_a_at) / Fold change /veh LINC00158 (11744669_a_at) / RFU DUSP10 (11751237_a_at) / Fold change /veh DUSP10 (11751237_a_at) / RFU ID3 (11757404_x_at) / Fold change /veh ID3 (11757404_x_at) / RFU PLEKHG5 (11737974_s_at) / Fold change /veh PLEKHG5 (11737974_s_at) / RFU LRRC4B (11730491_at) / Fold change /veh LRRC4B (11730491_at) / RFU GIMAP4 (11747438_a_at) / Fold change /veh GIMAP4 (11747438_a_at) / RFU KRT8 (11758183_x_at) / Fold change /veh KRT8 (11758183_x_at) / RFU CNN1 (11734310_a_at) / Fold change /veh CNN1 (11734310_a_at) / RFU VPS37D (11726825_at) / Fold change /veh VPS37D (11726825_at) / RFU C10orf10 (11716522_x_at) / Fold change /veh C10orf10 (11716522_x_at) / RFU KIR2DL2 /// KIR2DL4 /// KIR2DL5A /// KIR2DL5B /// KIR2DS1 /// KIR2DS2 /// KIR2DS3 /// KIR2DS4 /// KIR3DL3 /// KIR3DL3 /// KIR3DS1 (11738374_at) / Fold change /veh KIR2DL2 /// KIR2DL4 /// KIR2DL5A /// KIR2DL5B /// KIR2DS1 /// KIR2DS2 /// KIR2DS3 /// KIR2DS4 /// KIR3DL3 /// KIR3DL3 /// KIR3DS1 (11738374_at) / RFU C1QL1 (11718748_at) / Fold change /veh C1QL1 (11718748_at) / RFU TMPRSS4 (11747572_a_at) / Fold change /veh TMPRSS4 (11747572_a_at) / RFU HAMP (11756126_x_at) / Fold change /veh HAMP (11756126_x_at) / RFU RNFT2 (11725882_a_at) / Fold change /veh RNFT2 (11725882_a_at) / RFU NR4A2 (11747474_a_at) / Fold change /veh NR4A2 (11747474_a_at) / RFU ABCC12 (11746883_a_at) / Fold change /veh ABCC12 (11746883_a_at) / RFU TMEM136 (11760407_x_at) / Fold change /veh TMEM136 (11760407_x_at) / RFU CLDN22 /// WWC2 (11732394_at) / Fold change /veh CLDN22 /// WWC2 (11732394_at) / RFU HLA-DPB1 (11760878_x_at) / Fold change /veh HLA-DPB1 (11760878_x_at) / RFU SPINT1 (11716480_a_at) / Fold change /veh SPINT1 (11716480_a_at) / RFU GAP43 (11754022_s_at) / Fold change /veh GAP43 (11754022_s_at) / RFU A4GNT (11735810_at) / Fold change /veh A4GNT (11735810_at) / RFU PRB3 (11715151_x_at) / Fold change /veh PRB3 (11715151_x_at) / RFU TUBB4B (11761932_at) / Fold change /veh TUBB4B (11761932_at) / RFU CAPN14 (11732068_a_at) / Fold change /veh CAPN14 (11732068_a_at) / RFU TMCC2 (11721928_a_at) / Fold change /veh TMCC2 (11721928_a_at) / RFU IRGQ (11745062_a_at) / Fold change /veh IRGQ (11745062_a_at) / RFU FAM174B (11720279_a_at) / Fold change /veh FAM174B (11720279_a_at) / RFU TMPRSS4 (11748680_a_at) / Fold change /veh TMPRSS4 (11748680_a_at) / RFU FAM212B (11763350_a_at) / Fold change /veh FAM212B (11763350_a_at) / RFU PLEKHG5 (11743358_a_at) / Fold change /veh PLEKHG5 (11743358_a_at) / RFU ZSCAN30 (11745921_a_at) / Fold change /veh ZSCAN30 (11745921_a_at) / RFU CMKLR1 (11741424_a_at) / Fold change /veh CMKLR1 (11741424_a_at) / RFU LOC101060620 /// MAPK8IP1 (11723275_at) / Fold change /veh LOC101060620 /// MAPK8IP1 (11723275_at) / RFU SPTSSB (11747773_x_at) / Fold change /veh SPTSSB (11747773_x_at) / RFU PRSS12 (11739890_at) / Fold change /veh PRSS12 (11739890_at) / RFU BIN1 (11741810_x_at) / Fold change /veh BIN1 (11741810_x_at) / RFU WNT11 (11732464_a_at) / Fold change /veh WNT11 (11732464_a_at) / RFU C10orf10 (11716521_a_at) / Fold change /veh C10orf10 (11716521_a_at) / RFU C5orf56 (11738089_at) / Fold change /veh C5orf56 (11738089_at) / RFU CYB561 (11721691_x_at) / Fold change /veh CYB561 (11721691_x_at) / RFU ANKRD19P (11752326_a_at) / Fold change /veh ANKRD19P (11752326_a_at) / RFU OR2T12 /// OR2T33 /// OR2T8 (11738714_s_at) / Fold change /veh OR2T12 /// OR2T33 /// OR2T8 (11738714_s_at) / RFU VCAN (11748164_a_at) / Fold change /veh VCAN (11748164_a_at) / RFU JSRP1 (11732532_at) / Fold change /veh JSRP1 (11732532_at) / RFU KRTAP10-11 (11738290_x_at) / Fold change /veh KRTAP10-11 (11738290_x_at) / RFU MYO3A (11730013_a_at) / Fold change /veh MYO3A (11730013_a_at) / RFU EBF3 (11725865_a_at) / Fold change /veh EBF3 (11725865_a_at) / RFU CAMK2N1 (11719241_x_at) / Fold change /veh CAMK2N1 (11719241_x_at) / RFU C5orf56 (11738088_a_at) / Fold change /veh C5orf56 (11738088_a_at) / RFU OLFML3 (11715873_a_at) / Fold change /veh OLFML3 (11715873_a_at) / RFU LOC100653217 /// NTM (11731650_a_at) / Fold change /veh LOC100653217 /// NTM (11731650_a_at) / RFU MAPK11 (11762145_a_at) / Fold change /veh MAPK11 (11762145_a_at) / RFU FIZ1 (11724087_x_at) / Fold change /veh FIZ1 (11724087_x_at) / RFU OASL (11726364_x_at) / Fold change /veh OASL (11726364_x_at) / RFU SOX15 (11748057_x_at) / Fold change /veh SOX15 (11748057_x_at) / RFU CD79A (11719716_a_at) / Fold change /veh CD79A (11719716_a_at) / RFU HIST1H1D (11736915_at) / Fold change /veh HIST1H1D (11736915_at) / RFU CASKIN2 (11723855_a_at) / Fold change /veh CASKIN2 (11723855_a_at) / RFU LOC730098 (11760151_x_at) / Fold change /veh LOC730098 (11760151_x_at) / RFU OR4N2 (11742367_at) / Fold change /veh OR4N2 (11742367_at) / RFU PRRT2 (11749266_a_at) / Fold change /veh PRRT2 (11749266_a_at) / RFU SNX32 (11753110_a_at) / Fold change /veh SNX32 (11753110_a_at) / RFU CDHR5 (11726645_a_at) / Fold change /veh CDHR5 (11726645_a_at) / RFU RCAN1 (11760418_a_at) / Fold change /veh RCAN1 (11760418_a_at) / RFU FAM167A (11723789_a_at) / Fold change /veh FAM167A (11723789_a_at) / RFU FAM26E (11764081_at) / Fold change /veh FAM26E (11764081_at) / RFU ISYNA1 (11749810_s_at) / Fold change /veh ISYNA1 (11749810_s_at) / RFU ACY1 (11761880_at) / Fold change /veh ACY1 (11761880_at) / RFU 11764098_at / Fold change /veh 11764098_at / RFU SAMD14 (11745864_x_at) / Fold change /veh SAMD14 (11745864_x_at) / RFU NPB (11741838_a_at) / Fold change /veh NPB (11741838_a_at) / RFU TMPRSS6 (11731388_a_at) / Fold change /veh TMPRSS6 (11731388_a_at) / RFU KRTAP10-2 (11738614_at) / Fold change /veh KRTAP10-2 (11738614_at) / RFU ARHGAP8 /// PRR5-ARHGAP8 (11727945_x_at) / Fold change /veh ARHGAP8 /// PRR5-ARHGAP8 (11727945_x_at) / RFU KRTAP5-7 /// NADSYN1 (11734609_at) / Fold change /veh KRTAP5-7 /// NADSYN1 (11734609_at) / RFU RASL12 (11751679_a_at) / Fold change /veh RASL12 (11751679_a_at) / RFU CDKN2B (11736163_a_at) / Fold change /veh CDKN2B (11736163_a_at) / RFU PRF1 (11729649_at) / Fold change /veh PRF1 (11729649_at) / RFU, ZNF638 /// ZNF638-IT1 / Fold change vs veh, ZNF638 /// ZNF638-IT1 / RFU, PANK3 / Fold change vs veh, PANK3 / RFU, SH3YL1 / Fold change vs veh, SH3YL1 / RFU, ZEB2 / Fold change vs veh, ZEB2 / RFU, NRIP1 / Fold change vs veh, NRIP1 / RFU, PTTG1IP / Fold change vs veh, PTTG1IP / RFU, CAPN2 / Fold change vs veh, CAPN2 / RFU, MED14 / Fold change vs veh, MED14 / RFU, SNORA58 / Fold change vs veh, SNORA58 / RFU, C1orf63 / Fold change vs veh, C1orf63 / RFU, LRRFIP1 / Fold change vs veh, LRRFIP1 / RFU, NDUFAF7 / Fold change vs veh, NDUFAF7 / RFU, SLC12A2 / Fold change vs veh, SLC12A2 / RFU, IBTK / Fold change vs veh, IBTK / RFU, ESF1 / Fold change vs veh, ESF1 / Fold change vs veh, TMEM50B / RFU, TAOK1 / Fold change vs veh, TAOK1 / RFU, ACBD3 / Fold change vs veh, ACBD3 / RFU, TMA16 / Fold change vs veh, TMA16 / RFU, RWDD3 / Fold change vs veh, RWDD3 / RFU, BCAT1 / Fold change vs veh, BCAT1 / RFU, EDEM3 / Fold change vs veh, EDEM3 / RFU, TMEM33 / Fold change vs veh, TMEM33 / RFU, WDR75 / Fold change vs veh, WDR75 / RFU, AHCTF1 / Fold change vs veh, AHCTF1 / RFU, TFRC / Fold change vs veh, TFRC / RFU, ZDHHC17 / Fold change vs veh, ZDHHC17 / RFU, NOM1 / Fold change vs veh, NOM1 / RFU, ARL8B / Fold change vs veh, ARL8B / RFU, ZBTB11 / Fold change vs veh, ZBTB11 / RFU, TAMM41 / Fold change vs veh, TAMM41 / RFU, KIAA1704 /// LOC100996395 / Fold change vs veh, KIAA1704 /// LOC100996395 / RFU, ING1 / Fold change vs veh, ING1 / RFU, TRMT61B / Fold change vs veh, TRMT61B / RFU, FUBP3 / Fold change vs veh, FUBP3 / RFU, TP53 / Fold change vs veh, TP53 / RFU, TNKS2 / Fold change vs veh, TNKS2 / RFU, ZFP14 / Fold change vs veh, ZFP14 / RFU, ACTR2 / Fold change vs veh, ACTR2 / RFU, PPP3R1 / Fold change vs veh, PPP3R1 / RFU, PIK3R1 / Fold change vs veh, PIK3R1 / RFU, HNRNPA1 / Fold change vs veh, HNRNPA1 / RFU, RNF170 / Fold change vs veh, RNF170 / RFU, ZNF28 / Fold change vs veh, ZNF28 / RFU, RNGTT / Fold change vs veh, RNGTT / RFU, OGT / Fold change vs veh, OGT / RFU, BRD1 / Fold change vs veh, BRD1 / RFU, MARS / Fold change vs veh, MARS / RFU, ZNF655 / Fold change vs veh, ZNF655 / RFU, FAHD1 / Fold change vs veh, FAHD1 / RFU, BDP1 / Fold change vs veh, BDP1 / RFU, LRRCC1 / Fold change vs veh, LRRCC1 / RFU, ARID1A / Fold change vs veh, ARID1A / RFU, ZNF146 / Fold change vs veh, ZNF146 / RFU, ZNF330 / Fold change vs veh, ZNF330 / RFU, GPN3 / Fold change vs veh, GPN3 / RFU, C9orf123 / Fold change vs veh, C9orf123 / RFU, N4BP2L2 / Fold change vs veh, N4BP2L2 / RFU, ARFIP1 / Fold change vs veh, ARFIP1 / RFU, FAM179B / Fold change vs veh, FAM179B / RFU, BCL10 / Fold change vs veh, BCL10 / RFU, UHRF1BP1L / Fold change vs veh, UHRF1BP1L / RFU, BET1 / Fold change vs veh, BET1 / RFU, CNOT2 / Fold change vs veh, CNOT2 / RFU, ZNF268 / Fold change vs veh, ZNF268 / Fold change vs veh, ZNF507 / RFU, DGCR2 / Fold change vs veh, DGCR2 / RFU, WDSUB1 / Fold change vs veh, WDSUB1 / Fold change vs veh, HSP90B1 /// MIR3652 / RFU, ADSS / Fold change vs veh, ADSS / RFU, GK / Fold change vs veh, GK / RFU, ZNF148 / Fold change vs veh, ZNF148 / RFU, TAF9 / Fold change vs veh, TAF9 / RFU, SLC1A5 / Fold change vs veh, SLC1A5 / RFU, SLMO2 / Fold change vs veh, SLMO2 / RFU, ABCC4 / Fold change vs veh, ABCC4 / RFU, LOC101060439 /// RAP1B / Fold change vs veh, LOC101060439 /// RAP1B / RFU, RFX7 / Fold change vs veh, RFX7 / RFU, GTPBP10 / Fold change vs veh, GTPBP10 / RFU, CNEP1R1 / Fold change vs veh, CNEP1R1 / RFU, BIVM-ERCC5 /// ERCC5 / Fold change vs veh, BIVM-ERCC5 /// ERCC5 / RFU, ILF3 / Fold change vs veh, ILF3 / RFU 11762660_at / Fold change /veh 11762660_at / RFU VCAN (11757783_s_at) / Fold change /veh VCAN (11757783_s_at) / RFU DDX43 (11728927_at) / Fold change /veh DDX43 (11728927_at) / RFU KRT8 (11758188_x_at) / Fold change /veh KRT8 (11758188_x_at) / RFU NKD1 (11759106_at) / Fold change /veh NKD1 (11759106_at) / RFU SRD5A1 (11742802_a_at) / Fold change /veh SRD5A1 (11742802_a_at) / RFU TPSAB1 /// TPSB2 (11721975_s_at) / Fold change /veh TPSAB1 /// TPSB2 (11721975_s_at) / RFU GSTM3 (11746129_a_at) / Fold change /veh GSTM3 (11746129_a_at) / RFU IL23R (11737362_x_at) / Fold change /veh IL23R (11737362_x_at) / RFU TMEM51 (11727254_a_at) / Fold change /veh TMEM51 (11727254_a_at) / RFU PIWIL2 (11732686_x_at) / Fold change /veh PIWIL2 (11732686_x_at) / RFU ORM1 (11744905_x_at) / Fold change /veh ORM1 (11744905_x_at) / RFU CCDC152 (11743942_at) / Fold change /veh CCDC152 (11743942_at) / RFU ECM1 (11717891_a_at) / Fold change /veh ECM1 (11717891_a_at) / RFU IL23R (11748794_a_at) / Fold change /veh IL23R (11748794_a_at) / RFU TNFAIP8L3 (11732012_x_at) / Fold change /veh TNFAIP8L3 (11732012_x_at) / RFU MBOAT4 (11741988_at) / Fold change /veh MBOAT4 (11741988_at) / RFU 11764193_at / Fold change /veh 11764193_at / RFU TMEM53 (11763286_at) / Fold change /veh TMEM53 (11763286_at) / RFU MAGEB2 (11727129_at) / Fold change /veh MAGEB2 (11727129_at) / RFU TMEM200A (11744735_a_at) / Fold change /veh TMEM200A (11744735_a_at) / RFU CCDC152 (11751479_a_at) / Fold change /veh CCDC152 (11751479_a_at) / RFU FAM211A (11726209_a_at) / Fold change /veh FAM211A (11726209_a_at) / RFU RGS16 (11746705_a_at) / Fold change /veh RGS16 (11746705_a_at) / RFU VCAN (11755009_s_at) / Fold change /veh VCAN (11755009_s_at) / RFU RHOB (11743442_s_at) / Fold change /veh RHOB (11743442_s_at) / RFU RGS16 (11720943_a_at) / Fold change /veh RGS16 (11720943_a_at) / RFU RGS16 (11720944_at) / Fold change /veh RGS16 (11720944_at) / RFU, VPS4B / Fold change vs veh, VPS4B / RFU, CREB1 / Fold change vs veh, CREB1 / RFU, DNAJC13 / Fold change vs veh, DNAJC13 / RFU, GNAQ / Fold change vs veh, GNAQ / RFU, CDK5R1 / Fold change vs veh, CDK5R1 / RFU, ZRANB3 / Fold change vs veh, ZRANB3 / RFU, CUL4A / Fold change vs veh, CUL4A / RFU, CCNY / Fold change vs veh, CCNY / RFU, UFL1 / Fold change vs veh, UFL1 / RFU, COG3 / Fold change vs veh, COG3 / RFU, DIAPH2 / Fold change vs veh, DIAPH2 / RFU, SKA2 / Fold change vs veh, SKA2 / RFU, AFF3 / Fold change vs veh, AFF3 / RFU, LMF1 / Fold change vs veh, LMF1 / RFU, IPO11 / Fold change vs veh, IPO11 / RFU, DFFB / Fold change vs veh, DFFB / RFU, FOXP1 / Fold change vs veh, FOXP1 / RFU, CARD8 / Fold change vs veh, CARD8 / RFU, STRN3 / Fold change vs veh, STRN3 / RFU, ADK / Fold change vs veh, ADK / RFU, RASSF2 / Fold change vs veh, RASSF2 / RFU, WIPF1 / Fold change vs veh, WIPF1 / RFU, LARP1B / Fold change vs veh, LARP1B / RFU, RASA1 / Fold change vs veh, RASA1 / RFU, RB1 / Fold change vs veh, RB1 / RFU, PPFIA1 / Fold change vs veh, PPFIA1 / RFU, MAT2A / Fold change vs veh, MAT2A / RFU, CCT5 / Fold change vs veh, CCT5 / RFU, WDR92 / Fold change vs veh, WDR92 / RFU, CUX1 / Fold change vs veh, CUX1 / RFU, TTC7A / Fold change vs veh, TTC7A / RFU, TMEM135 / Fold change vs veh, TMEM135 / RFU, DEPTOR / Fold change vs veh, DEPTOR / RFU, CPM / Fold change vs veh, CPM / RFU, DNAJB6 / Fold change vs veh, DNAJB6 / RFU, CACNA2D3 / Fold change vs veh, CACNA2D3 / RFU, DTX4 / Fold change vs veh, DTX4 / RFU, TFCP2 / Fold change vs veh, TFCP2 / RFU, GMCL1 /// GMCL1P1 / Fold change vs veh, GMCL1 /// GMCL1P1 / RFU, AEBP2 / Fold change vs veh, AEBP2 / RFU, SNHG1 /// SNORD22 /// SNORD25 /// SNORD26 /// SNORD27 /// SNORD28 /// SNORD29 /// SNORD31 / Fold change vs veh, SNHG1 /// SNORD22 /// SNORD25 /// SNORD26 /// SNORD27 /// SNORD28 /// SNORD29 /// SNORD31 / Fold change (Aza/veh), C12orf56 (ProbeSet 11735607_a_at) / Fold change (ACY-1035/veh), C12orf56 (ProbeSet 11735607_a_at) / Fold change (Aza/veh), FGFR1OP (ProbeSet 11751329_s_at) / Fold change (ACY-1035/veh), FGFR1OP (ProbeSet 11751329_s_at) / Fold change (Aza/veh), VPS36 (ProbeSet 11739960_a_at) / Fold change (ACY-1035/veh), VPS36 (ProbeSet 11739960_a_at) / RFU SYPL1 (11715823_x_at) / Fold change /veh SYPL1 (11715823_x_at) / RFU IGFBP7 (11715501_s_at) / Fold change /veh IGFBP7 (11715501_s_at) / RFU REEP3 (11722064_at) / Fold change /veh REEP3 (11722064_at) / RFU IGLL1 (11728026_x_at) / Fold change /veh IGLL1 (11728026_x_at): dose or concentration left out as unconfirmed
Conditions: MV-4-11 cells, 48 hours

Nc1ncn([C@@H]2O[C@H](CO)[C@@H](O)[C@H]2O)c(=O)n1 [azacitidine]
RFU WNT11 (11732464_a_at): 6.46 RFU

— PMC5218480 (PLoS ONE, 2017)
